The values below come from PubChem BioAssay (NCI).

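How tested: cells in 96-well plates exposed to compound for 48 hours at five concentrations. GI50: concentration for 50% inhibition of growth. TGI denotes the concentration required for complete inhibition of growth.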 Where only a bound is given, the exact number is not on record here.

Among the test systems are MOLT-4 leukemia; SF-539 CNS; SN12C renal; M14 melanoma; ACHN renal; MDA-MB-231 breast; OVCAR-8 ovarian; DU-145 prostate; SW-620 colon; SNB-75 CNS.
What all share (experiment): DTP human tumour cell line panel, 48 h

In general, GI50 refers to the concentration that inhibits growth by half. Usually TGI stands for the concentration giving total growth inhibition. A high value points to less potent growth arrest. On to `N#C[Se]CCCNS(=O)(=O)C1CC2C=CC1C2` (stereo unspecified), for which the GI50 with MOLT-4 leukemia is 0.409 µM; in the assay with SF-539 CNS it was 0.413 µM; in the assay on SN12C renal, 0.494 µM; with M14 melanoma, 0.231 µM; with ACHN renal, 1.48 µM; in the assay on MDA-MB-231 breast it was 1.23 µM. In addition, the GI50 in the assay on OVCAR-8 ovarian was 0.511 µM; in the assay with DU-145 prostate, 1.06 µM; in the assay with SW-620 colon, 1.79 µM. Also, the TGI in the assay on MOLT-4 leukemia was 22.6 µM; with SF-539 CNS, 1.56 µM; in the assay with SN12C renal it was 1.44 µM; in the assay on M14 melanoma it was 0.655 µM; in the assay on ACHN renal, 2.85 µM; in the assay with MDA-MB-231 breast it was 3.55 µM. Besides, the TGI with OVCAR-8 ovarian was 5.06 µM; in the assay with DU-145 prostate, 2.58 µM; with SW-620 colon, 5.56 µM.

On to `COC1=CC(c2ccc[nH]2)=N/C1=C\c1[nH]c(C)c(C(=O)CCCCC(=O)Oc2ccc3c(c2)CCC2C3CC[C@]3(C)[C@@H](O)CC[C@@H]23)c1C` (stereo partly specified), for which the GI50 is 5.02 µM in the assay on MOLT-4 leukemia; over 100 µM with SN12C renal; 12.7 µM with SNB-75 CNS; 4.78 µM in the assay on M14 melanoma; 5.14 µM in the assay with ACHN renal; 2 µM with MDA-MB-231 breast. Further, the GI50 is over 100 µM in the assay with OVCAR-8 ovarian, 9.57 µM in the assay on DU-145 prostate and 4.33 µM in the assay on SW-620 colon. Besides, the TGI was over 100 µM in the assay with MOLT-4 leukemia; over 100 µM with SN12C renal; over 100 µM in the assay on SNB-75 CNS; over 100 µM in the assay on M14 melanoma; over 100 µM in the assay on ACHN renal; 8.04 µM in the assay on MDA-MB-231 breast. For the same compound, the TGI with OVCAR-8 ovarian, in the assay with DU-145 prostate and in the assay with SW-620 colon was over 100 µM each time.

As for `NC(N)=N/N=C/c1ccc(-c2ccc(-c3cc(Cl)cc(Cl)c3)s2)cc1`, the GI50 in the assay on MOLT-4 leukemia is 1.72 µM; in the assay on SF-539 CNS it was 1.65 µM; in the assay with SN12C renal, 1.76 µM; in the assay on M14 melanoma, 1.75 µM; in the assay on ACHN renal, 1.75 µM; in the assay on MDA-MB-231 breast, 1.77 µM. For the same compound, the GI50 was 2.48 µM in the assay with OVCAR-8 ovarian, 1.74 µM with DU-145 prostate and 1.66 µM in the assay on SW-620 colon. The TGI came to 4.3 µM with MOLT-4 leukemia; 3.1 µM in the assay with SF-539 CNS; 3.48 µM in the assay with SN12C renal; 3.53 µM with M14 melanoma; 3.29 µM with ACHN renal; 3.36 µM with MDA-MB-231 breast. Also, the results for the TGI in the assay on OVCAR-8 ovarian, in the assay with DU-145 prostate and in the assay on SW-620 colon were 6.34 µM, 3.18 µM and 3.34 µM, respectively.

Regarding `COc1ccc(Nc2cc(C)nc(NCCCNc3ccnc4cc(Cl)ccc34)n2)cc1`, the GI50 was 2.95 µM in the assay on MOLT-4 leukemia; 1.24 µM in the assay with SF-539 CNS; 2.74 µM in the assay with SN12C renal; 1.28 µM in the assay with SNB-75 CNS; 1.61 µM in the assay on ACHN renal; 1.55 µM with MDA-MB-231 breast. Besides, the GI50 in the assay on OVCAR-8 ovarian is 2.42 µM; in the assay on DU-145 prostate it was 3.4 µM; with SW-620 colon it was 1.61 µM. Further, the TGI in the assay with MOLT-4 leukemia was over 100 µM; in the assay on SF-539 CNS, 2.64 µM; in the assay on SN12C renal, 10.8 µM; in the assay with SNB-75 CNS, 2.54 µM; in the assay on ACHN renal, 3.16 µM; in the assay on MDA-MB-231 breast it was 3.31 µM. The TGI in the assay on OVCAR-8 ovarian was determined as 6.03 µM; with DU-145 prostate, 10.7 µM; with SW-620 colon, 3.51 µM.

As for `Cc1ccc2c(c1)S(=O)(=O)c1ccc3ccccc3c1N2`, the TGI in the assay with MOLT-4 leukemia, in the assay on SF-539 CNS, with SN12C renal, in the assay with M14 melanoma, in the assay on ACHN renal and with MDA-MB-231 breast was over 100 µM in each case. For the same compound, the concentration for total growth inhibition (TGI) with OVCAR-8 ovarian, in the assay on DU-145 prostate and with SW-620 colon was over 100 µM each time.

Turning to `Cn1c(NCC(O)CN2CCCC2)cc(=O)n(C)c1=O` (stereo unspecified), the GI50 in the assay with MOLT-4 leukemia was over 100 µM; in the assay with SF-539 CNS it was over 100 µM; in the assay with SN12C renal, over 100 µM; in the assay on SNB-75 CNS it was 76.2 µM; in the assay on ACHN renal, over 100 µM; with MDA-MB-231 breast, over 100 µM. Also, the GI50 in the assay with OVCAR-8 ovarian, in the assay with DU-145 prostate and in the assay on SW-620 colon was over 100 µM each time. Moreover, the TGI with MOLT-4 leukemia, in the assay on SF-539 CNS, in the assay with SN12C renal, in the assay with SNB-75 CNS, in the assay on ACHN renal and in the assay with MDA-MB-231 breast was over 100 µM each time. The TGI with OVCAR-8 ovarian, in the assay with DU-145 prostate and in the assay with SW-620 colon was over 100 µM each time.

Turning to `c1ccc2cc(C[n+]3ccn(CCCCCCCCCCn4cc[n+](Cc5ccc6ccccc6c5)c4)c3)ccc2c1`, the GI50 in the assay on MOLT-4 leukemia is 1.36 µM; in the assay on SF-539 CNS, 1.19 µM; with M14 melanoma, 2.76 µM; in the assay with ACHN renal, 6.17 µM; in the assay on MDA-MB-231 breast it was 1.33 µM; in the assay with OVCAR-8 ovarian, 2.18 µM. Further, the GI50 in the assay on DU-145 prostate is 1.06 µM; with SW-620 colon, 1.57 µM. Moreover, the TGI with MOLT-4 leukemia was 3 µM; in the assay with SF-539 CNS, 6.54 µM; with M14 melanoma, 15.7 µM; in the assay on ACHN renal it was 80.3 µM; in the assay with MDA-MB-231 breast it was 5.3 µM; in the assay with OVCAR-8 ovarian, 13.1 µM. The results for the TGI in the assay with DU-145 prostate and with SW-620 colon were 14.1 µM and 11.2 µM, respectively.

For the compound `COc1cc(/C=C2\C[C@H]3[C@@H]4CC=C5C[C@@H](O)CC[C@]5(C)[C@H]4CC[C@]3(C)[C@H]2O)ccc1OCCCn1ccnc1`, the GI50 was over 50 µM in the assay on MOLT-4 leukemia; 1.05 µM in the assay with SF-539 CNS; 2.73 µM in the assay with SN12C renal; 1.28 µM in the assay on ACHN renal; 0.863 µM in the assay with MDA-MB-231 breast; 2.62 µM in the assay on OVCAR-8 ovarian. In the assay with DU-145 prostate, the GI50 is 1.92 µM. The TGI in the assay on MOLT-4 leukemia was over 50 µM; in the assay on SF-539 CNS it was 2.09 µM; in the assay with SN12C renal, 13.2 µM; in the assay on ACHN renal it was 3.34 µM; in the assay with MDA-MB-231 breast, 1.74 µM; in the assay with OVCAR-8 ovarian, 16.1 µM. The TGI in the assay on DU-145 prostate is 7.45 µM.

With `COc1cc([N+](=O)[O-])c(OC)cc1-c1nc2sc(Cl)cn2c1/C=N/NC1=NCCN1`, the GI50 is 0.184 µM in the assay on SF-539 CNS; 1.67 µM with SN12C renal; 1.39 µM with M14 melanoma; 1.32 µM in the assay on ACHN renal; 1.49 µM in the assay on MDA-MB-231 breast; 0.306 µM with DU-145 prostate. Further, the TGI in the assay with SF-539 CNS stood at 0.352 µM; in the assay on SN12C renal, 3.52 µM; with M14 melanoma it was 2.8 µM; in the assay with ACHN renal, 2.6 µM; in the assay on MDA-MB-231 breast it was 3.18 µM; with DU-145 prostate it was 1.14 µM.
